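These data come from cells grown in 96-well plates and exposed to compound for 48 hours at five concentrations. GI50 = concentration required for 50% inhibition of growth. TGI: concentration producing complete growth inhibition.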 Where only a bound is given, the exact number is not on record here.

Among the test systems are HCT-15 colon; HCT-116 colon; SK-OV-3 ovarian; U251 CNS; IGROV1 ovarian; OVCAR-3 ovarian; 786-0 renal; SN12C renal; SNB-75 CNS; UACC-62 melanoma.
Test in all cases: NCI tumour cell line growth inhibition, 48 h

Turning to `Cc1ccc(-c2nc(C(Cl)Cl)n3nc(-c4ccccc4)cc3n2)cc1`, the GI50 was 0.313 µM with HCT-15 colon; 0.258 µM in the assay on HCT-116 colon; 2.56 µM in the assay with SK-OV-3 ovarian; 0.322 µM with U251 CNS; 0.711 µM with IGROV1 ovarian; 0.222 µM in the assay on OVCAR-3 ovarian. Moreover, the GI50 with 786-0 renal is 0.676 µM; in the assay on SN12C renal, over 100 µM; in the assay with SNB-75 CNS, over 100 µM. Besides, the TGI with HCT-15 colon is 1.12 µM; with HCT-116 colon it was 0.712 µM; in the assay with SK-OV-3 ovarian, over 100 µM; with U251 CNS it was 1.53 µM; with IGROV1 ovarian, over 100 µM; in the assay with OVCAR-3 ovarian, 0.586 µM. The TGI with 786-0 renal is 2.17 µM; in the assay on SN12C renal, over 100 µM; with SNB-75 CNS, over 100 µM.
With `Clc1cc(Cl)c2c(Cl)cc(Cl)c3c2c1N=S=N3`, the TGI in the assay with HCT-15 colon, in the assay with HCT-116 colon, in the assay with SK-OV-3 ovarian, with U251 CNS, in the assay with UACC-62 melanoma and in the assay with IGROV1 ovarian was over 100 µM in each case. The TGI in the assay on OVCAR-3 ovarian, with 786-0 renal and with SNB-75 CNS was over 100 µM each time.
For `CC1(C)OC(=O)C=C([O-])O1.CC1(C)OC(=O)C=C([O-])O1.O=c1c(O)c(-c2ccc([O-])cc2[O-])oc2cc(O)cc(O)c12.[Ti+4]`, the TGI in the assay with HCT-15 colon, with HCT-116 colon, in the assay with SK-OV-3 ovarian, in the assay on UACC-62 melanoma, in the assay on IGROV1 ovarian and with OVCAR-3 ovarian was over 100 µM throughout. In addition, the results for the TGI in the assay on 786-0 renal, with SN12C renal and with SNB-75 CNS were over 100 µM, over 100 µM and 60.4 µM, respectively. Also, the results for the GI50 in the assay on SK-OV-3 ovarian and with UACC-62 melanoma were 83.1 µM and 33.1 µM, respectively.
For `O=C(N/N=C/c1ccc(Cl)cc1Cl)c1ccccc1Nc1cccc(C(F)(F)F)c1`, the GI50 is 30.5 µM with HCT-15 colon; 5.62 µM in the assay on HCT-116 colon; 12.5 µM with SK-OV-3 ovarian; 3.07 µM in the assay with U251 CNS; 13.3 µM in the assay with UACC-62 melanoma; 2.85 µM with OVCAR-3 ovarian. Moreover, the GI50 was 6.74 µM in the assay with 786-0 renal, 7.66 µM with SN12C renal and 2.55 µM in the assay on SNB-75 CNS. Besides, the TGI with HCT-15 colon was over 100 µM; in the assay with HCT-116 colon, 29.9 µM; with SK-OV-3 ovarian it was 39.2 µM; in the assay with U251 CNS, 9.64 µM; with UACC-62 melanoma, 58.4 µM; in the assay on OVCAR-3 ovarian, 8.03 µM. Also, the TGI was 31 µM in the assay on 786-0 renal, 48.2 µM in the assay with SN12C renal and 9.71 µM in the assay on SNB-75 CNS.
Turning to `C=C1CC(COc2cc(Cl)nc(N)n2)C1`, the GI50 in the assay with HCT-15 colon was 33 µM; in the assay on HCT-116 colon, 35.1 µM; with SK-OV-3 ovarian it was 69.7 µM; in the assay with U251 CNS it was 13.5 µM; in the assay with IGROV1 ovarian it was 84.1 µM; with OVCAR-3 ovarian, 28.6 µM. For the same compound, the GI50 in the assay on 786-0 renal was 49.5 µM; in the assay on SN12C renal, 44.1 µM; with SNB-75 CNS it was 29.2 µM.
As to `Cc1ccc([N+](=O)[O-])c2c(NCCCN(C)C)ccnc12`, the TGI is over 100 µM in the assay with HCT-15 colon; over 100 µM in the assay on HCT-116 colon; over 100 µM with U251 CNS; 91.8 µM in the assay with IGROV1 ovarian; over 93.1 µM in the assay with OVCAR-3 ovarian; over 100 µM in the assay on 786-0 renal. The TGI in the assay on SN12C renal and with SNB-75 CNS was over 100 µM throughout.
Turning to `Cc1sc(C)c(-c2ccc(CO)o2)c1-c1ccc(CO)o1`, the GI50 is over 76.6 µM with HCT-15 colon; 0.0695 µM in the assay with HCT-116 colon; 16.5 µM in the assay with SK-OV-3 ovarian; 14.5 µM with U251 CNS; 0.077 µM in the assay on IGROV1 ovarian; 0.183 µM in the assay on OVCAR-3 ovarian. The GI50 was 96.6 µM in the assay on SN12C renal and 25.4 µM in the assay with SNB-75 CNS. The TGI in the assay with HCT-15 colon was over 100 µM; with HCT-116 colon, over 100 µM; in the assay with SK-OV-3 ovarian, over 100 µM; with U251 CNS, over 100 µM; in the assay with IGROV1 ovarian, 0.472 µM; in the assay on OVCAR-3 ovarian, 0.706 µM. Also, the TGI in the assay on 786-0 renal, in the assay with SN12C renal and with SNB-75 CNS was over 100 µM in each case.
`C=C1C(=O)O[C@H]2[C@H]1CC/C(COC(=O)c1cc3cc(OC)ccc3[nH]1)=C\CC[C@@]1(C)O[C@@H]21`: the GI50 was 0.323 µM in the assay on HCT-15 colon; 0.425 µM with HCT-116 colon; 4.9 µM in the assay on SK-OV-3 ovarian; 1.6 µM in the assay with U251 CNS; 1.38 µM in the assay on UACC-62 melanoma; 1.48 µM in the assay on IGROV1 ovarian. The GI50 in the assay on OVCAR-3 ovarian is 0.935 µM; with 786-0 renal, 1.27 µM; with SN12C renal, 1.77 µM. The TGI in the assay with HCT-15 colon came to 1.6 µM; with HCT-116 colon it was 1.72 µM; in the assay on SK-OV-3 ovarian, 17.1 µM; in the assay on U251 CNS, 2.95 µM; in the assay on UACC-62 melanoma, 2.72 µM; with IGROV1 ovarian, 3.17 µM. For the same compound, the TGI in the assay with OVCAR-3 ovarian turned out to be 2.15 µM; with 786-0 renal, 2.68 µM; in the assay on SN12C renal, 3.52 µM.
`O=C(Nc1ccc(S(=O)(=O)N[C@@H](C(=O)O)c2ccccc2)cc1)c1ccc(F)cc1`: the TGI with HCT-15 colon, in the assay with SK-OV-3 ovarian, in the assay with U251 CNS, with UACC-62 melanoma, with IGROV1 ovarian and in the assay on OVCAR-3 ovarian was over 100 µM throughout. For the same compound, the TGI in the assay with 786-0 renal, in the assay with SN12C renal and in the assay on SNB-75 CNS was over 100 µM each time.
For the compound `CCOc1cccc2nc3cccc(C(=O)NCCN(C)C)c3nc12`, the TGI was 7.47 µM in the assay on HCT-15 colon; 2.37 µM with HCT-116 colon; over 35.4 µM in the assay with SK-OV-3 ovarian; 9.26 µM with U251 CNS; 3.38 µM in the assay on UACC-62 melanoma; 5.51 µM in the assay on OVCAR-3 ovarian. In addition, the TGI is over 28.7 µM in the assay with 786-0 renal, 3.59 µM in the assay with SN12C renal and 11.6 µM in the assay on SNB-75 CNS.
Turning to `COc1ccccc1C(=O)c1ccc2ccccc2c1`, the TGI in the assay with HCT-15 colon was over 100 µM; in the assay on HCT-116 colon, over 100 µM; with U251 CNS, over 100 µM; in the assay on UACC-62 melanoma, over 100 µM; in the assay with IGROV1 ovarian, 53 µM; in the assay with OVCAR-3 ovarian, 39.6 µM. Further, the TGI in the assay on 786-0 renal, in the assay with SN12C renal and with SNB-75 CNS was over 100 µM each time.

Values taken from PubChem BioAssay (NCI).
